In patent US20190071670A1, “Methods Of Treatment For Alpha-1 Antitrypsin Deficiency” (Arrowhead Pharmaceuticals, Inc., priority 2016, published 2019):

Key:
hAAT mRNA = experiment: Liver hAAT mRNA levels in PiZ mice (RT-qPCR); assay type: in vivo, human (expressed in PiZ mice); details: for hAAT mRNA in liver reduced: 6 month old female PiZ mice, single IV 8 mg/kg + 8 mg/kg MLP delivery polymer; for Average relative mRNA level (hAAT) / hAAT mRNA level: PiZ mice liver; for Average relative mRNA level (hAAT): one injection 8 mg/kg + 8 mg/kg MLP delivery polymer; for hAAT mRNA level: single IV 6 mg/kg with 6 mg/kg MLP delivery polymer, relative to mouse β-actin mRNA
Protocol: Compositions comprising double-stranded AAT expression-inhibiting oligomeric compounds were administered to PiZ mice. PiZ mice harbor the human PiZ AAT mutant allele and model human AATD (Carlson et al. Journal of Clinical Investigation 1989). […] Liver hAAT mRNA production was measured at days 3 and 10. Reduced mRNA levels correlated with decreased serum hAAT protein levels, except that mRNA reduction preceded protein reduction by a few days. The level of liver hAAT mRNA production was measured at day 3 and day 10 following a single dose of AAT RNAi agent with MLP delivery polymer in PiZ mice. A sustained decrease in liver hAAT mRNA levels was observed that correlated with the decrease observed in serum hAAT protein levels.
Human AAT protein levels in serum were monitored for 29 days. At the indicated times, blood samples were collected and assayed for hAAT by ELISA. Day 1 samples were collected prior to trigger administration. For mRNA analysis, 3-4 mice were euthanized at each of days 3, 8, 15, 22, and 29. For euthanized mice, cardiac stick were performed for serum isolation for AAT ELISA (200 μl serum). Half of the left lateral liver lobe was collected and snap-freeze in liquid nitrogen for RNA isolation. The remainder of the left lobes were embedded into paraffin blocks for PAS-D staining with hematoxylin as counter-stain. Serum hAAT levels in mice given AAT Duplex Pair SEQ ID NO: 5/6 were 95% reduced on day 8 and remained reduced to day 29, at which time they were 79% reduced. Mice given AAT Duplex Pair SEQ ID NO: 5/6 were euthanized at either day 3, 8, 15, 22 or 29. Mice given saline or Luciferase siRNA control (SEQ ID 7/8) were euthanized on day 29. Levels of hAAT mRNA in the livers were measured by RT-qPCR. The hAAT mRNA in mice given AAT Duplex Pair SEQ ID NO: 5/6 was reduced by 97% on day 3 and remained reduced on day 29, at which time levels were 56% reduced. The size of the globules and the area of the liver covered by globules was digitally quantitated from liver specimens stained with PAS-D. Duplex Pair SEQ ID NO: 5/6 treated mice had 70% smaller globules at day 15 and 62% smaller globules at day 29. The area of the liver covered with globules was 83% reduced on day 15 and 72% reduced on day 29 (FIG. 5).

[1] = test system: liver morphology of PiZ mice; experiment: Liver histology (H&E) of PiZ mice; assay type: in vivo
Protocol: AAT RNAi agent was administered to PiZ mice. Each mouse received a biweekly administration of an intravenous (IV) dose of 8 mg/kg AAT RNAi agent with 8 mg/kg of MLP delivery polymer for 8 weeks. Mice were bled weekly to monitor hAAT levels in serum and were sacrificed on day 57 after administration of AAT RNAi agent with MLP delivery polymer. Liver samples were harvested and fixed in 10% neutral-buffered formalin and embedded in paraffin. Inflammatory infiltration was assessed by H&E staining. […] PiZ mice injected biweekly with saline had significant globule accumulation as well as inflammatory infiltration around damaged or dead hepatocytes. Aggregation of Z-hAAT was visualized by performing diastase-resistant periodic acid Schiff (PAS-D) staining on liver sections. Diastase digestion of glycogen prior to performing a PAS stain allows positive staining of Z-AAT protein accumulation, or “globules”. […] The number of globules, the size of the globules and the area of the liver covered by globules was digitally quantitated from liver specimens stained with PAS-D. Mice treated with AAT RNAi agent had 85% fewer globules, 85% smaller globules, and 96% less area of the liver covered with globules than saline-injected controls (FIG. 3).
Baseline mice had significant globule accumulation with globules that were 5-10 microns in diameter, compressed nuclei, apoptosis and inflammatory cell infiltration. Saline treated mice had significant globule accumulation with globules that were 25-35 microns in diameter, compressed nuclei, and inflammatory cell infiltration.

Z-hAAT [2] = experiment: Semi-quantitative Western blot of soluble (monomer) and insoluble (polymer) Z-hAAT in PiZ mouse liver; assay type: in vivo, human (expressed in PiZ mice); details: PiZ mice liver; four biweekly IV doses 8 mg/kg with 8 mg/kg MLP delivery polymer for 8 weeks
Z-hAAT [3] = experiment: as above; assay type: in vivo, human (expressed in PiZ mice)
Protocol: A modified western blot protocol was used to separate the soluble and insoluble Z-hAAT fractions under non-denaturing conditions as previously described (Mueller et al. Molecular Therapy 2012).
PiZ mice treated biweekly with 8 mg/kg AAT RNAi agent for 32 weeks were compared with mice at start of study (baseline) and control mice injected for 32 weeks with saline vehicle. Monomeric and polymeric Z-hAAT protein in the livers of these mice were compared by semi-quantitative Western blotting (FIG. 7). […] Monomeric Z-AAT was reduced by 90% and polymeric Z-AAT was reduced by 48% in the AAT RNAi agent treated mice (p<0.0001).
One animal from each of Groups 2, 3, and 4 died prior to completion of the study. After sacrifice, monomeric and polymeric Z-hAAT protein in the livers of these mice were compared by semi-quantitative Western blotting over a course of 3 separate runs. Western blot Run 1 included six mice from Group 1, four mice from Group 2, and five mice from Group 4. Western blot Run 2 includes three mice from Group 1, six mice from Group 3 and 5 mice from Group 5. Western blot Run 3 includes three mice from Group 1, 2 mice from Group 4, 2 mice from Group 5, 7 mice from Group 6.

[4] = PiZ mice, AAT RNAi agent + MLP treated, n = 16
[5] = male PiZ mice, biweekly AAT RNAi agent with MLP (Example 9)
[6] = Western blot Run 1, Group 4 (n = 5): male PiZ mice, 8 mg/kg + 4 mg/kg MLP, 20 × q2w, euthanized Week 39
[7] = male PiZ mice liver, biweekly 8 mg/kg (with MLP) for 32 weeks, p<0.0001

## Duplex Pair SEQ ID NO: 5/6: double-stranded AAT RNAi agent: modified antisense strand SEQ ID NO: 5 annealed to Chol-TEG sense strand SEQ ID NO: 6 (antisense TGGAACUUGGUGAUGAUAUTT; sense UAUAUAUCAUCACCAAGUUCCAT; Chol-TEG on sense strand; chemical modifications; antisense strand of dsRNA; modified_base 7 /mod_base = “2′-3′ seco corresponding nucleotide”; modified_base 2,4,6,8,10,12,14,16,18 /mod_base = “2′-deoxy-2′-fluoro corresponding nucleoside”; modified_base 3,5,9,11,13,15,17,19 /mod_base = “2′-O-methyl corresponding nucleoside”; modified_base 21 /mod_base = “5′-phosphorothioate corresponding nucleotide”; sense strand of dsRNA; modified_base 2 /mod_base = “2′-hydroxy corresponding nucleoside”; modified_base 4,6,8,10,12,14,16,18,20,22 /mod_base = “2′-deoxy-2′-fluoro corresponding nucleoside”; …)
hAAT mRNA; day 3
  hAAT mRNA in liver reduced: 97%
  hAAT mRNA level: 0.025 ± 0.02
hAAT mRNA; day 29
  hAAT mRNA in liver reduced: 56%
hAAT mRNA; Day 3
  Average relative mRNA level (hAAT): 0.030
hAAT mRNA; Day 8
  Average relative mRNA level (hAAT): 0.032
hAAT mRNA; Day 15
  Average relative mRNA level (hAAT): 0.158
hAAT mRNA; Day 22
  Average relative mRNA level (hAAT): 0.221
hAAT mRNA; Day 29
  Average relative mRNA level (hAAT): 0.439
hAAT mRNA; day 10
  hAAT mRNA level: 0.055 ± 0.02
[1]; [4]
  Score: Inflammatory foci, Moderate (number of animals): 11
  Score: Inflammatory foci, None (number of animals): 5
  Score: Inflammatory foci, Severe (number of animals): 0
[1]; PiZ mice, AAT RNAi agent + MLP treated, n = 16, baseline 7/12, saline 13/13
  Score: Compressed nuclei (animals/total): 3/16
[1]; PiZ mice, biweekly IV 8 mg/kg with 8 mg/kg MLP delivery polymer for 8 weeks, day 57
  Liver morphology and inflammatory infiltration (H&E staining): normal morphology, no detectably inflammatory infiltrate and very rare, small Z-hAAT globules
[1]; [5]
  compressed nuclei: fewer compressed nuclei than either baseline or saline-treated mice
  inflammatory infiltration: no inflammatory infiltration
[1]; male PiZ mice, biweekly AAT RNAi agent with MLP (Example 9), baseline 5-10, saline 25-35 microns
  globule diameter: 7-10 microns
[1]; male PiZ mice, biweekly AAT RNAi agent with MLP (Example 9), baseline and saline: significant
  globule accumulation: minimal to moderate
Z-hAAT [2]
  reduction in insoluble Z-hAAT compared to saline: 79%
  reduction in soluble Z-hAAT compared to saline: > 99%
Z-hAAT [3]; [6]
  Z-hAAT monomeric protein, Average (Standard deviation): 71.4 (15.6)
  Z-hAAT monomeric protein, Average Normalized to Baseline (Group 1): 0.126
  Z-hAAT monomeric protein, Average Normalized to Saline (Group 2): 0.152
  Z-hAAT polymeric protein, Average (Standard deviation): 1809.1 (932.5)
  Z-hAAT polymeric protein, Average Normalized to Baseline (Group 1): 0.419
  Z-hAAT polymeric protein, Average Normalized to Saline (Group 2): 0.238
Z-hAAT [3]; male PiZ mice 11-17 weeks old, biweekly 4, 8 or 12 mg/kg with MLP delivery polymer (2:1) for 16, 24 or 32-33 weeks
  Z-AAT polymer burden and diseased liver morphology: a reduction in the Z-AAT polymer burden and a reduction in the diseased liver morphology
Z-hAAT [3]; [7]
  Monomeric Z-AAT reduced: 90%
  polymeric Z-AAT reduced: 48%
